Data as given in patent US20070191287A1, “D-ribose for improving depression-like symptoms” (priority 2004, published 2007).

Experiments:
[1] = tested on: mice; assay: forced swimming test in mice; assay type: in vivo, mice (ddY-strain)
Experimental: Male 10 ddY-strain mice (5 weeks old, purchased from Japan SLC, Inc.) were used for each group as test animals. The animals were housed in groups of 20 mice in a plastic-made cage (26×43×16 cm; Clea Japan Inc.), and they were kept in the animal room maintained at 23±2° C. with 30 to 80% humidity, and illuminated for 12 hr (6:30 to 18:30). The animals were allowed free access to pellet diets (CRF-1, Oriental Yeast, Co., Ltd.), and tap water.
The experiment was carried out on the four groups, such as the groups treated with D-ribose at doses of 30 mg/kg, 100 mg/kg, 300 mg/kg, and the control group. The animals were grouped based on the body weights which had been previously measured prior to the experiment so that the average body weight of each group becomes equal. D-ribose was dissolved in distilled water and administered orally at 10 ml/kg once a day and repeatedly for one week in mice. To the control group, distilled water was administered orally instead of aqueous D-ribose solution. […] Briefly, the animals were forced to swim twice, i.e., for 15 minutes prior to the treatment of a test compound or distilled water on the day before the final administration, and further for 5 minutes one hour after the final administration on the following day. That is, the mice were forced to swim in a clear polycarbonate-made measuring cylinder (internal diameter: 10 cm, height: 25 cm) containing water up to a height of 10 cm at a temperature of 250° C., and the duration of the immobility during the second swimming was recorded.
The results were expressed as mean±standard error for each group. The significant differences between the groups were studied by Dunnett's multiple comparison test with a significance level of 5%.
Male10 ddY-strain male mice (5 weeks old, purchased from Japan SLC, Inc.) were used for each group as test animals. The animals were kept under the same conditions as in Example 1. The experiment was carried out on the four groups, such as the groups treated with D-ribose 100 mg/kg, potassium magnesium aspartate (Mg.K aspartate) 50 mg/kg, and D-ribose 100 mg/kg+Mg.K aspartate 50 mg/kg, and the control group. The animals were grouped based on the body weights which had been previously measured prior to the experiment so that the average body weight of each group becomes equal. D-ribose and potassium magnesium aspartate were dissolved in distilled water and administered orally at 10 ml/kg once a day and repeatedly for one week. […]
Male 10 ddY-strain mice (5 weeks old, purchased from Japan SLC, Inc.) were used for each group as test animals. The animals were grouped based on the body weights which had been previously measured prior to the experiment so that the average body weight of each group becomes equal. […]

[2] = tested on: rats; assay: soaking fatigue test in rats; assay type: in vivo, rats (SD-strain); settings: orally twice a day divided, 5 days
Experimental: Male 10 SD-strain rats (7 weeks old, purchased from Japan SLC, Inc.) were used for each group as test animals. The animals were grouped based on the body weights which had been previously measured prior to the experiment so that the average body weight of each group becomes equal. The animals were kept under the same conditions as in Example 1. The experiment was carried out on the 3 groups, such as the groups treated with D-ribose at doses of 300 mg/kg, 1000 mg/kg, and the control group. To the D-ribose-treated groups, D-ribose was dissolved in distilled water for injection in a predetermined amount for each body weight, and the resulting aqueous solution was mandatorily administered orally to the rats at a dose of 10 ml/kg. To the control group, distilled water for injection was mandatorily administered orally instead of aqueous D-ribose solution at a dose of 10 ml/kg.
The soaking fatigue test in rats was carried out by a modification of the method of Tanaka (cf., Igaku-no-Ayumi, 204 (5), 362-364 (2003)). Briefly, the rats in each group were kept in a cage where water at 23±1° C. was filled at a water depth of about 1.5 cm for 5 days, during which D-ribose was orally administered to the rats twice a day at 10 A.M. and 3 P.M. with divided amount of the daily dose (300 mg/kg or 1000 mg/kg), i.e., at each time 150 mg/kg or 500 mg/kg, respectively, for 5 days in a row. Twenty-four hours after the last administration, the rats were loaded with a weight (about 20 g, about 8°% of the body weight) at a position of about ⅘ distant from the root. Each rat was forced to swim individually in a clear acrylic cylindrical water bath (inner diameter: 25 cm, height: 60 cm) containing warm water (25±2° C., water-depth: 50 cm). The time from the beginning of swimming until the nose of the rat sank down into the water for more than 10 seconds was measured.
The results were expressed as mean±standard error for each group. The significant differences between the groups were studied by Bonferroni/Dun multiple comparison test with a significance level of 5%.

[3] = tested on: human; assay: evaluation of effect of maintaining concentration in human (random number table test); assay type: in vivo; settings: healthy volunteers; D-ribose 2.2 g/day for 7 days, crossover vs dextrin control
Source text: The effect of maintaining concentration by D-ribose in human can be evaluated by the test using a random number table (cf., Sports Mental Training for Winning Games, written by Yoshihide TAKAHATA, published by NATSUME CO, LTD., 2003).
Twenty healthy volunteers are grouped into two groups, i.e., the D-ribose 2.2 g/day-treated group, and the control group. The volunteers in the D-ribose 2.2 g/day-treated group take an aqueous solution of D-ribose (2.2 g), a roasted green tea extra (0.24 g) and sucralose (2 mg) in distilled water for injection per day. The volunteers in the control group take an aqueous solution of dextrin (2.2 g), a roasted green tea extra (0.24 g) and sucralose (2 mg) in distilled water per day. […]
The evaluation test for concentration power is carried out as follows. […] Then, the number of marked cells is compared between both groups and the concentration power is evaluated therefrom.
Further, after one-month washout period from the above evaluation test for concentration power, the volunteers in both groups are exchanged each other, and then the same test is carried out again on the volunteers. Combining the results of these two tests, the effect of maintaining concentration by D-ribose is comprehensively evaluated.

[4] = tested on: reserpine-induced hypothermia; assay: reserpine-induced hypothermia competitive test; assay type: in vivo, mice (ddY-strain)
Experimental: Male 8 ddY-strain mice (5 weeks old, purchased from Japan SLC, Inc.) were used for each group as test animals. The animals were kept under the same conditions as in Example 1. The experiment was carried out on the four groups such as the groups treated with D-ribose at doses of 30 mg/kg, 100 mg/kg, 300 mg/kg, and the control group. The animals were grouped based on the body temperature (rectal temperature) which had been previously measured prior to the experiment so that the average body temperature of each group becomes equal. D-ribose was dissolved in distilled water and administered orally at 10 ml/kg once a day and repeatedly for one week. To the control group, distilled water was administered orally instead of aqueous D-ribose solution. The reserpine-induced hypothermia competitive test was a modification of the method of Wachtel (cf., Neuropharmacology, 22 (3), p. 267-272 (1983)). Namely, a solution of reserpine (Daiichi Pharmaceutical Co. Ltd.) in an aqueous propylene glycol solution was subcutaneously administered to the mice in each group at a dose of 1 mg/kg (i.e., in an amount of 10 ml/kg) just before administration of a test compound or distilled water, and subsequently, D-ribose or distilled water were administered orally to the mice, and then the rectal temperature of each mouse was measured on 1, 2, 4, 6 and 8 hours after administration of D-ribose or distilled water. In the experiment, the reserpine treatment and the administration of the test compound were carried out during from 10:00 AM to 11:00 AM. The results were expressed as mean±standard error in each group. The significant differences between the groups were studied by Bonferroni/Dun multiple comparison test with a significance level of 5%. Male 8 ddY-strain mice (5 weeks old, purchased from Japan SLC, Inc.) were used for each group as test animals. The animals were kept under the same conditions as in Example 1. […] To the control group, distilled water was administered orally. The grouping, the administration of reserpine and the measurement of body temperature were carried out in the same manner as in Example 3. The results were expressed as mean±standard error for each group. The significant differences between the groups were studied by Bonferroni/Dunn multiple comparison test with a significance level of 5%.

Row | SMILES | duration of immobility ([1]; Example 2, Mg.K aspartate 50 mg/kg alone, orally once a day for one week) | anti-fatigue effect (duration of swimming) ([2]; 300 mg/kg daily dose, swim 24 h after last administration) | anti-fatigue effect (duration of swimming) ([2]; 1000 mg/kg daily dose, stress-related fatigue caused by breeding under soaking) | duration of swimming longer than that in the control group ([2]; 1000 mg/kg daily dose, swim 24 h after last administration) | concentration power (number of marked cells) [3] | reserpine-induced hypothermia (rectal temperature) ([4]; Example 3, 30 mg/kg orally once a day for one week, reserpine 1 mg/kg s.c.) | reserpine-induced hypothermia (rectal temperature) ([4]; Example 3, 100 mg/kg orally once a day for one week, 4 or 6 hours after administration) | reserpine-induced hypothermia (rectal temperature) ([4]; Example 3, 300 mg/kg orally once a day for one week, 4 or 6 hours after administration) | reserpine-induced hypothermia (rectal temperature) ([4]; Example 4, D-ribose alone 100 mg/kg orally, at 4 and 6 hours after treatment) | duration of immobility ([1]; Comparative Example 1, D-ribose 100 mg/kg and 300 mg/kg orally for one week) | duration of immobility ([1]; Example 1, 300 mg/kg orally once a day for one week, vs control group) | duration of immobility ([1]; Example 2, D-ribose 100 mg/kg alone, orally once a day for one week)
1 | N[C@@H](CC(=O)O)C(=O)O.[K+].[Mg+2] [Mg.K aspartate, potassium magnesium aspartate] | not significantly reduced | – | – | – | – | – | – | – | – | – | – | –
2 | O=C[C@H](O)[C@H](O)[C@H](O)CO [D-ribose] | – | any significant anti-fatigue effect was observed | significant anti-fatigue effect | about 70% | dominantly maintained | not significantly alleviated | significantly and nearly dose-relatively alleviated | significantly and nearly dose-relatively alleviated | significantly alleviated | dose-depending reduction | significantly reduced | not significantly reduced
